Results published in patent US12454534B2, “Pyrrolo[2,3-b]pyrazines as HPK1 inhibitor and the use thereof” (BEIGENE, LTD., priority 2019, dated 2025).

How the values were obtained:
HEK293 cells = experiment: HEK293 cell viability assay (CellTiter-Glo); assay type: cell-based; conditions: Homo sapiens, HEK293, 72 h, 3-day exposure, 0 to 10 μM
Method: Cytotoxicity on HEK293 Cells Proliferation (HEK293 Cell Viability Assay)
HEK293 cell line were used in this study. Cell lines were maintained in DMEM (Dulbecco's Modified Eagle Medium) supplemented with 10% fetal bovine serum (Thermo Fisher), 50 units/mL penicillin and streptomycin (Thermo Fisher) and kept at 37° C. in a humidified atmosphere containing 5% CO2 in air. Cell lines were reinstated from frozen stocks that were laid down within 50 passages from the original cells purchased. The growth-inhibitory activity of compounds in HEK293 cells was determined using CellTiter-Glo luminescent cell viability assay (Promega). 3000 cells per well were seeded into a 96-well plate to ensure logarithmic growth for 3 days treatment period. Cells were treated with a 10-point dilution series. The final compound concentration was from 0 to 10 μM. Following a 3-day exposure to the test compounds, 30 μL of CellTiter-Glo reagent was added into 100 μL cell culture medium per well. Mixture was mixed on an orbital shaker for 2 minutes to allow cell lysis, followed by 10 minutes of incubation at room temperature to allow development and stabilization of luminescent signal, which corresponded to the quantity of ATP and thus the quantity of metabolically active cells. Luminescent signal was measured using PHERAstar FS reader (BMG Labtech). IC50 values for cell viability were determined with Dotmatics.

[1] = target: T1, HPK1 kinase (aa1-346, Life Technologies) (Homo sapiens, UniProt Q92918); experiment: HPK1 Kinase Activity Assay at 1 mM ATP (TR-FRET); assay type: biochemical; conditions: HPK1 40 nM, read-out: Enzymatic activity IC50
T1 construct: HPK1 kinase (aa1-346, Life Technologies); purchased Life Technologies
T1 sequence (Q92918 1-346): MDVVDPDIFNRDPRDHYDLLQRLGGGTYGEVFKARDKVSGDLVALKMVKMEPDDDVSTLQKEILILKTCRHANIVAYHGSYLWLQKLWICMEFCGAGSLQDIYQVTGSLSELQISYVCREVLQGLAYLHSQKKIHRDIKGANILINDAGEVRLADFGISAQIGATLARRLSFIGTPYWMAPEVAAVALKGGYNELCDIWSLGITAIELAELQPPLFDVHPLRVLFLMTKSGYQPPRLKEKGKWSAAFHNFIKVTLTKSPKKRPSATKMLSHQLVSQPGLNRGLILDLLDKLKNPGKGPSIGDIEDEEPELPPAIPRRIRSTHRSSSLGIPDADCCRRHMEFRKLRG
Method: HPK1 Kinase Activity Assay at 1 mM ATP
Compounds disclosed herein were tested for inhibition of HPK1 kinase (aa1-346, Life Technologies) activity in assays based on the time-resolved fluorescence-resonance energy transfer (TR-FRET) methodology. The assays were carried out in 384-well low volume black plates in a reaction mixture containing HPK1 kinase (40 nM), 1 mM ATP, 0.5 μM STK1 substrate and 0-10 μM compound in buffer containing 50 mM HEPES, 0.01% BSA, 0.1 mM Orthovanadate, 10 mM MgCl2, 1 mM DTT, pH=7.0, 0.005% Tween-20. The kinase was incubated with the compounds disclosed herein or DMSO for 60 minutes at room temperature and the reaction was initiated by the addition of ATP and STK1 substrate. After reaction at room temperature for 120 minutes, an equal volume of stop/detection solution was added according to the manufacturer's instruction (CisBio). The stop/detection solution contained STK Antibody-Cryptate and XL665-conjugated streptavidin in Detection Buffer. The TR-FRET signals (ratio of fluorescence emission at 665 nm over emission at 620 nm with excitation at 337 nm wavelength) were recorded on a PHERAstar FS plate reader (BMG Labtech). Phosphorylation of STK1 substrate led to the binding of STK Antibody-Cryptate to the biotinylated STK1 substrate, which places fluorescent donor (Eu^3+ cryptate) in close proximity to the accepter (Streptavidin-XL665), thus resulting in a high degree of fluorescence resonance energy transfer. The inhibition of HPK1 in presence of increasing concentrations of compounds was calculated based on the ratio of fluorescence at 665 nm to that at 620 nm. The IC50 for each compound was derived from fitting the data to the four-parameter logistic equation by Graphpad Prism software.

| SMILES | IC50 [1] [µM] | IC50 (HEK293 cells) [µM] |
| --- | --- | --- |
| COc1cc(-c2cnc3[nH]cc(-c4ccc(C(=O)N(C)C[C@H](C)O)c(C)c4)c3n2)cc2c1CN(C)CC2 [Example 6, (S)—N-(2-hydroxypropyl)-4-(2-(8-methoxy-2-methyl-1,2,3,4-tetrahydroisoquinolin-6-yl)-5H-pyrrolo[2,3-b]pyrazin-7-yl)-N, 2-dimethylbenzamide] | 0.032 | 5.56 |
| COc1cc(-c2cnc3[nH]cc(-c4ccc(C(=O)N5CC6(COC6)C5)cc4)c3n2)cc2c1CN(C)CC2 [Example 15, (4-(2-(8-methoxy-2-methyl-1,2,3,4-tetrahydroisoquinolin-6-yl)-5H-pyrrolo[2,3-b]pyrazin-7-yl)phenyl) (2-oxa-6-azaspiro[3.3]heptan-6-yl)methanone] | 0.017 | 1.04 |
| Cc1cc(-c2c[nH]c3ncc(-c4cc(C)c5c(c4)CN(C)CC5)nc23)ccc1C(=O)N1CC2(COC2)C1 [Example 16, (4-(2-(2,5-dimethyl-1,2,3,4-tetrahydroisoquinolin-7-yl)-5H-pyrrolo[2,3-b]pyrazin-7-yl)-2-methylphenyl) (2-oxa-6-azaspiro[3.3]heptan-6-yl)methanone] | 0.088 | > 10 |
| Cc1cc(-c2c[nH]c3ncc(-c4cc(C)c5c(c4)CN(CCN4CCOCC4)CC5)nc23)ccc1C(=O)N(C)C[C@@H]1CCOC1 [Example 50, (S)—N, 2-dimethyl-4-(2-(5-methyl-2-(2-morpholinoethyl)-1,2,3,4-tetrahydroisoquinolin-7-yl)-5H-pyrrolo[2,3-b]pyrazin-7-yl)-N-((tetrahydrofuran-3-yl)methyl)benzamide] | 0.137 |  |
| Cc1cc(-c2cnc3[nH]cc(-c4ccc(C(=O)N(C)C[C@@H]5CCOC5)cc4)c3n2)cc2c1CCN(CCN1CCOCC1)C2 [Example 51, (S)—N-methyl-4-(2-(5-methyl-2-(2-morpholinoethyl)-1,2,3,4-tetrahydroisoquinolin-7-yl)-5H-pyrrolo[2,3-b]pyrazin-7-yl)-N-((tetrahydrofuran-3-yl)methyl)benzamide] | 0.036 |  |
| COCCCNC(=O)CN1CCc2c(C)cc(-c3cnc4[nH]cc(-c5ccc(C(=O)N(C)C)c(C)c5)c4n3)cc2C1 [Example 52, 4-(2-(2-(2-((3-methoxypropyl)amino)-2-oxoethyl)-5-methyl-1,2,3,4-tetrahydroisoquinolin-7-yl)-5H-pyrrolo[2,3-b]pyrazin-7-yl)-N, N, 2-trimethylbenzamide] | 0.074 |  |
| Cc1cc(-c2c[nH]c3ncc(-c4cc(C)c5c(c4)CN(CCC(=O)N[C@@H]4CCCOC4)CC5)nc23)ccc1C(=O)N(C)C [Example 53, (R)—N, N, 2-trimethyl-4-(2-(5-methyl-2-(3-oxo-3-((tetrahydro-2H-pyran-3-yl)amino)propyl)-1,2,3,4-tetrahydroisoquinolin-7-yl)-5H-pyrrolo[2,3-b]pyrazin-7-yl)benzamide] | 0.078 |  |
| Cc1cc(-c2c[nH]c3ncc(-c4cc(C)c5c(c4)CN(CCC(=O)N[C@H]4CCC[C@H]4O)CC5)nc23)ccc1C(=O)N(C)C [Example 54, 4-(2-(2-(3-(((1S, 2R)-2-hydroxycyclopentyl)amino)-3-oxopropyl)-5-methyl-1,2,3,4-tetrahydroisoquinolin-7-yl)-5H-pyrrolo[2,3-b]pyrazin-7-yl)-N, N, 2-trimethylbenzamide] | 0.068 |  |
| Cc1cc(-c2c[nH]c3ncc(-c4cc(C)c5c(c4)CN(CCC(=O)NCC4CC4)CC5)nc23)ccc1C(=O)N(C)C [Example 55, 4-(2-(2-(3-((cyclopropylmethyl)amino)-3-oxopropyl)-5-methyl-1,2,3,4-tetrahydroisoquinolin-7-yl)-5H-pyrrolo[2,3-b]pyrazin-7-yl)-N, N, 2-trimethylbenzamide] | 0.089 |  |
| Cc1cc(-c2c[nH]c3ncc(-c4cc(C)c5c(c4)CN(CCC(=O)N[C@H]4CC[C@H](O)C4)CC5)nc23)ccc1C(=O)N(C)C [Example 56, 4-(2-(2-(3-(((1S, 3S)-3-hydroxycyclopentyl)amino)-3-oxopropyl)-5-methyl-1,2,3,4-tetrahydroisoquinolin-7-yl)-5H-pyrrolo[2,3-b]pyrazin-7-yl)-N, N, 2-trimethylbenzamide] | 0.093 |  |
| [2H]C([2H])([2H])N(C(=O)c1ccc(-c2c[nH]c3ncc(-c4cc(C)c5c(c4)CCN(C)C5)nc23)cc1C)C([2H])([2H])[2H] [Example 128, 4-(2-(2,8-dimethyl-1,2,3,4-tetrahydroisoquinolin-6-yl)-5H-pyrrolo[2,3-b]pyrazin-7-yl)-2-methyl-N,N-bis(methyl-d3)benzamide] | 0.021 |  |

The next lines start with results.

| IC50 [1] [µM] | SMILES | IC50 (HEK293 cells) [µM] |
| --- | --- | --- |
| 0.024 | Cc1cc(-c2cnc3[nH]cc(-c4ccc(C(=O)N(C)C)cc4)c3n2)cc2c1CCN(C)C2 [Example 1, 4-[2-(2,5-dimethyl-3,4-dihydro-1H-isoquinolin-7-yl)-5H-pyrrolo[2,3-b]pyrazin-7-yl]-N, N-dimethylbenzamide] | 3.65 |
| 0.026 | Cc1cc(-c2c[nH]c3ncc(-c4cc(C)c5c(c4)CN(C)CC5)nc23)ccc1C(=O)N(C)C [Example 2, 4-(2-(2,5-dimethyl-1,2,3,4-tetrahydroisoquinolin-7-yl)-5H-pyrrolo[2,3-b]pyrazin-7-yl)-N, N, 2-trimethylbenzamide] | 3.34 |
| 0.012 | COc1cc(-c2cnc3[nH]cc(-c4ccc(C(=O)N(C)C[C@H](C)O)cc4)c3n2)cc2c1CN(C)CC2 [Example 3, (S)—N-(2-hydroxypropyl)-4-(2-(8-methoxy-2-methyl-1,2,3,4-tetrahydroisoquinolin-6-yl)-5H-pyrrolo[2,3-b]pyrazin-7-yl)-N-methylbenzamide] | 1.27 |
| 0.011 | COc1cc(-c2cnc3[nH]cc(-c4ccc(C(=O)N(C)C[C@@H](C)O)cc4)c3n2)cc2c1CN(C)CC2 [Example 10, (R)—N-(2-hydroxypropyl)-4-(2-(8-methoxy-2-methyl-1,2,3,4-tetrahydroisoquinolin-6-yl)-5H-pyrrolo[2,3-b]pyrazin-7-yl)-N-methylbenzamide] | 1.42 |
| 0.065 | Cc1cc(-c2cnc3[nH]cc(-c4ccc(C(=O)N(C)CC(C)(C)O)cc4)c3n2)cc2c1CCN(C)C2 [Example 20, 4-(2-(2,5-dimethyl-1,2,3,4-tetrahydroisoquinolin-7-yl)-5H-pyrrolo[2,3-b]pyrazin-7-yl)-N-(2-hydroxy-2-methylpropyl)-N-methylbenzamide] | 3.87 |
| 0.014 | COc1cc(-c2cnc3[nH]cc(-c4ccc(C(=O)N(C)C[C@@H]5CCOC5)cc4)c3n2)cc2c1CN(C)CC2 [Example 57, (S)-4-(2-(8-methoxy-2-methyl-1,2,3,4-tetrahydroisoquinolin-6-yl)-5H-pyrrolo[2,3-b]pyrazin-7-yl)-N-methyl-N-((tetrahydrofuran-3-yl)methyl)benzamide] |  |
| 0.021 | COc1cc(-c2cnc3[nH]cc(-c4ccc(C(=O)N(C)C)cc4)c3n2)cc2c1CN(CC(C)(C)O)CC2 [Example 58, 4-(2-(2-(2-hydroxy-2-methylpropyl)-8-methoxy-1,2,3,4-tetrahydroisoquinolin-6-yl)-5H-pyrrolo[2,3-b]pyrazin-7-yl)-N, N-dimethylbenzamide] |  |
| 0.016 | Cc1cc(-c2cnc3[nH]cc(-c4ccc(C(=O)N(C)CCC#N)cc4)c3n2)cc2c1CCN(C)C2 [Example 59, N-(2-cyanoethyl)-4-(2-(2,5-dimethyl-1,2,3,4-tetrahydroisoquinolin-7-yl)-5H-pyrrolo[2,3-b]pyrazin-7-yl)-N-methylbenzamide] |  |
